# According to PubChem BioAssay (NCI):
# Values joined by “and” are separate entries in the source; they are usually repeats but may differ in a detail not shown here. Identical values can stand only once.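 Interpolation was linear, between the two tested concentrations surrounding the appropriate level; five concentrations were tested over 48 hours in 96-well plates. GI50 marks 50% less growth. The concentration for full growth arrest is given as TGI.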
# Key:
# Test in all cases: NCI tumour cell line growth inhibition, 48 h
# SF-295 CNS = tested on: SF-295 CNS
# NCI-H460 lung = tested on: NCI-H460 lung
# HCT-116 colon = tested on: HCT-116 colon
# PC-3 prostate = tested on: PC-3 prostate
# NCI-H226 lung = tested on: NCI-H226 lung
# UACC-257 melanoma = tested on: UACC-257 melanoma
# NCI-H522 lung = tested on: NCI-H522 lung
# HCC-2998 colon = tested on: HCC-2998 colon
# EKVX NSCLC = tested on: EKVX NSCLC
# U251 CNS = tested on: U251 CNS
Structure (SMILES),GI50 (SF-295 CNS),TGI (SF-295 CNS),GI50 (NCI-H460 lung),TGI (NCI-H460 lung),GI50 (HCT-116 colon),TGI (HCT-116 colon),GI50 (PC-3 prostate),TGI (PC-3 prostate),GI50 (NCI-H226 lung),TGI (NCI-H226 lung),GI50 (UACC-257 melanoma),TGI (UACC-257 melanoma),GI50 (NCI-H522 lung),TGI (NCI-H522 lung),GI50 (HCC-2998 colon),TGI (HCC-2998 colon),GI50 (EKVX NSCLC),TGI (EKVX NSCLC),GI50 (U251 CNS),TGI (U251 CNS)
O=C(Cc1ccc(/C=C/C(=O)c2ncc[nH]2)cc1)Nc1ccc(F)cc1,4.74 µM,11.5 µM,1.72 µM,14.6 µM,1.89 µM,6.92 µM,2.8 µM,11.9 µM,9.85 µM,> 33.3 µM,8.67 µM,30.6 µM,3.38 µM,9.42 µM,5.43 µM,10.9 µM,7.46 µM,32.9 µM,1.2 µM,4.5 µM
NS(=O)(=O)c1ccc(Nc2cc(-c3cccc(O)c3)[nH]n2)cc1,> 25 µM,> 25 µM,> 25 µM,> 25 µM,> 25 µM,> 25 µM,> 25 µM,> 25 µM,> 25 µM,> 25 µM,> 25 µM,> 25 µM,22.6 µM,> 25 µM,> 25 µM,> 25 µM,> 25 µM,> 25 µM,24.4 µM,> 25 µM
Fc1cccc(COc2ccc(Nc3ncnc4sc(-c5cccs5)cc34)cc2Cl)c1,9.81 µM,> 25 µM,7.63 µM,> 17 µM,7.59 µM,> 23.8 µM,> 10.7 µM,> 20.4 µM,4.58 µM,15.2 µM,1.42 µM,> 14 µM,7.55 µM,> 22.4 µM,5.25 µM,> 18.4 µM,4.74 µM,> 20.4 µM,5.75 µM,15.9 µM
CS(=O)(=O)Nc1cncc(-c2ccc3ncnc(Nc4ccc(F)c(Cl)c4)c3c2)c1,2.79 µM,13 µM,4.22 µM,16 µM,1.97 µM,5.77 µM,2.69 µM,15 µM,2.57 µM,21.3 µM,4.59 µM,23 µM,1.01 µM,4.1 µM,4.19 µM,16.8 µM,0.888 µM,7.01 µM,3.03 µM,15.2 µM
COc1cc(C2Cc3ncccc3-c3[nH]c(=O)c4cccnc4c32)cc(OC)c1OC (configuration not stated),0.274 µM,> 100 µM,0.429 µM,> 100 µM,0.456 µM,> 100 µM,0.513 µM,> 100 µM,> 74.7 µM,> 100 µM,> 100 µM,> 100 µM,0.204 µM,0.635 µM,2.24 µM,> 100 µM,3.21 µM,> 100 µM,0.524 µM,38.2 µM
CCN1C(=S)N(c2ccccc2)C2NC(=S)N(/N=C/C=C/c3ccccc3OC)C21 (configuration not stated),0.263 µM,> 100 µM,0.37 µM,> 100 µM,0.36 µM,> 100 µM,0.398 µM,> 100 µM,0.962 µM,> 23.1 µM,> 100 µM,> 100 µM,0.224 µM,1.26 µM,0.538 µM,> 100 µM,0.505 µM,> 100 µM,0.393 µM,> 100 µM
COc1cc2c(cc1OC)[C@@H](Nc1ccc(C#N)cc1)C1COC(=O)[C@@H]1C2c1cc(OC)c(O)c(OC)c1 (some centres not stated),,2 µM and 3.21 µM,,1.05 µM and 1.72 µM,6.81 µM and 3.23 µM,25.8 µM and > 100 µM,,> 100 µM,,0.298 µM,,95 µM and > 100 µM,1.11 µM and 5.06 µM,,0.665 µM and 2.72 µM,,16.4 µM and 6.9 µM,95 µM and 62.5 µM,0.0457 µM and 0.178 µM,
CC(=O)c1ccc2c(c1)c1cc(C(C)=O)ccc1n2CCNC(C)C,0.426 µM,2.62 µM,0.308 µM,1.81 µM,0.251 µM,3.69 µM,0.317 µM,1.76 µM,0.281 µM,2.19 µM,0.296 µM,1.31 µM,0.257 µM,1.13 µM,0.635 µM,4.39 µM,0.548 µM,4.97 µM,0.386 µM,6.05 µM
OCCN1CCN(CCCN2c3ccccc3Sc3ccc(Cl)cc32)CC1,1.75 µM,3.65 µM,1.98 µM,4.22 µM,1.76 µM,3.55 µM,2.64 µM,12 µM,5.26 µM,19.2 µM,1.66 µM,3.36 µM,1.5 µM,3.13 µM,1.5 µM,2.98 µM,3.43 µM,17.7 µM,1.9 µM,4.33 µM
CCOC(=O)c1cc(C(=O)c2cc(OC)c(OC)c(OC)c2)n2ncccc12,0.219 µM,13.9 µM,0.335 µM,> 100 µM,0.276 µM,> 100 µM,0.289 µM,> 100 µM,28.2 µM,> 100 µM,65.7 µM,> 100 µM,0.29 µM,> 21.7 µM,2.1 µM,> 100 µM,0.65 µM,> 100 µM,0.444 µM,37.1 µM
COc1ccc(C2CC(c3cccc(Nc4ccnc5cc(Cl)ccc45)c3)=NN2C=O)cc1 (configuration not stated),0.311 µM,2.57 µM,0.415 µM,> 100 µM,0.398 µM,2.56 µM,0.577 µM,> 100 µM,39.3 µM,> 100 µM,0.677 µM,34.8 µM,0.265 µM,3.06 µM,1.68 µM,> 100 µM,1.19 µM,> 100 µM,0.435 µM,3.98 µM
COC(=O)c1n[nH]c(C)c1N=NN(C)CCC#N,,73.4 µM,,36.5 µM,,46.3 µM,,74.7 µM,,35.8 µM,,> 100 µM,,25.1 µM,,44.1 µM,,29.2 µM,,41.5 µM
Nc1nccc(-c2c(-c3ccc(F)cc3)ncn2C2CCNCC2)n1,> 12.4 µM and 5.75 µM,> 25 µM,1.55 µM and 1.36 µM,> 25 µM,3.52 µM and 1.47 µM,> 25 µM,13.6 µM and 4.05 µM,> 25 µM,1.27 µM and 3.97 µM,> 21.2 µM and 20.1 µM,10.2 µM and 3.45 µM,> 25 µM and 17.6 µM,6.98 µM and 2.04 µM,> 25 µM and 7.22 µM,9.58 µM and 3.89 µM,> 25 µM and 12.2 µM,> 25 µM and 5.01 µM,> 25 µM and 24.8 µM,3.67 µM and 1.95 µM,> 25 µM
CCN(CC)c1ccc(/C=N/NC(=O)CSc2nc3ccccc3c(=O)n2CCc2ccc(S(N)(=O)=O)cc2)c(O)c1,4.01 µM,> 100 µM,0.595 µM,> 100 µM,0.927 µM,10.7 µM,1.83 µM,> 100 µM,1.34 µM,> 100 µM,3.25 µM,69.1 µM,3.17 µM,> 100 µM,2.49 µM,> 100 µM,1.42 µM,> 100 µM,1.44 µM,> 100 µM
CC(C)c1[nH]nc(C(N)=O)c1N=NN(C)C,,> 100 µM,,> 100 µM,,> 100 µM,,> 100 µM,,71.6 µM,,> 100 µM,,67.8 µM,,> 100 µM,,> 100 µM,,> 100 µM
CCN(Cc1ccc(C)cc1)c1ccc(CO)c(Cl)c1,1.01 µM,15.8 µM,0.306 µM,11.7 µM,0.0966 µM,4.11 µM,13.3 µM,29.5 µM,0.0702 µM,0.204 µM,0.134 µM,0.339 µM,11.5 µM,25.7 µM,10.4 µM,22.5 µM,12.9 µM,29.4 µM,0.867 µM,14.5 µM
NNC(=S)N/N=C(\C(=O)Nc1cccc(O)c1)C1C(=O)NC(=S)NC1=O,,> 100 µM,,> 100 µM,,> 100 µM,,> 100 µM,,> 100 µM,,> 100 µM,,> 100 µM,,> 100 µM,,> 100 µM,,> 100 µM
CC(C)(Br)C(=O)N1CCN(C(c2ccccc2)c2ccccc2)CC1,,> 100 µM,,> 100 µM,,> 100 µM,,> 100 µM,,> 100 µM,,> 100 µM,,> 100 µM,,> 100 µM,,> 100 µM,,> 100 µM
COc1ccc2c(c1OC)C[C@@H]1c3c(cc4c(c3-2)OCO4)CCN1C,,31.3 µM,,91.4 µM,,47.3 µM,,89.2 µM,,47 µM,,61 µM,,62.9 µM,,40.3 µM,,> 100 µM,,> 100 µM
CC(=O)O[C@H]1C(=O)[C@@]2(C)C(C(OC(=O)c3ccccc3)[C@]3(O)C[C@H](OC(=O)C(OC(=O)CCCC(=O)NCCCN(C)C)C(NC(=O)c4ccccc4)c4ccccc4)C(C)=C1C3(C)C)C1(OC(C)=O)COC1C[C@@H]2O (some centres not stated),,1.28 µM,,8.71 µM,,1.53 µM,,43 µM,,39.1 µM,,33.5 µM,,< 0.0105 µM,,0.0309 µM,,> 100 µM,,20.8 µM
C=C1CC[C@@H]2[C@](C)(COC(C)=O)[C@H](OC(C)=O)CC[C@@]2(C)[C@@H]1CC(Nc1ccc(S(=O)(=O)NC(C)=O)cc1)C1=CCOC1=O (some centres not stated),11.5 µM,22 µM,6.72 µM,17.9 µM,1.67 µM,3.66 µM,6.56 µM,16.8 µM,1.92 µM,4.62 µM,6.82 µM,16 µM,1.44 µM,4.42 µM,7.51 µM,17.3 µM,10.8 µM,20.9 µM,3.49 µM,12 µM
COc1ccc(/C=C/C(=O)c2cc(OC)c(OC)c(OC)c2)cc1OCC(=O)Nc1nc2ccc(OC(F)(F)F)cc2s1,2.21 µM,6.09 µM,2.43 µM,6.25 µM,1.43 µM,3.15 µM,3.14 µM,7.82 µM,3.35 µM,32.1 µM,8.08 µM,> 100 µM,0.671 µM,3.36 µM,6.18 µM,25.1 µM,5.11 µM,> 100 µM,0.703 µM,2.58 µM
Cc1cc2nc3c4cc(O)ccc4n(CCN(C)C)c3nc2cc1C,0.573 µM,2.49 µM,0.468 µM,1.99 µM,0.397 µM,3.36 µM,0.578 µM,2.3 µM,1.18 µM,5.45 µM,2.06 µM,5.2 µM,0.541 µM,3.32 µM,1.71 µM,4.71 µM,2.25 µM,9.96 µM,0.747 µM,4.46 µM
